Laboratory results from patent US20240150356A1, “Pyrimidine amide compounds and use thereof” (ALPHALA CO., LTD., priority 2019, published 2024).

System: Hep3B cells (hepatocellular carcinoma cell line)
Test: In vitro MTS cell viability assay (NCI-60 methodology), Hep3B
Format: cell-based
Conditions: Homo sapiens, 48 h, Table 1, MTS, 2 days drug incubation, 50% reduction vs time zero, read-out: Hep3B LC50
Outline: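 Following NCI-60 method, MTS viability of Hep3B measured 24 h after plating (time zero) and after a further 2-day exposure to five concentrations (2-fold series). LC50 defined where [(Ti−Tz)/Tz]×100 = −50.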

Q: Which LC50 does the source give for `CC(C)n1ncc2c(NC(=O)c3ccc([N+](=O)[O-])s3)nc(-c3ccc(C(F)(F)F)cc3)nc21` [Compound 1-24, N-(1-isopropyl-6-(4-(trifluoromethyl)phenyl)-1H-pyrazolo[3,4-d]pyrimidin-4-yl)-5-nitrothiophene-2-carboxamide] here?
A: 0.9 µM

Q: For `CC(C)(C)c1ccc(-c2nc(NC(=O)c3ccc([N+](=O)[O-])s3)c3cnn(C(C)(C)C)c3n2)cc1` [Compound 1-25, N-(1-(tert-butyl)-6-(4-(tert-butyl)phenyl)-1H-pyrazolo[3,4,d]pyrimidin-4-yl)-5-nitrothiophene-2-carboxamide], which LC50 is on record?
A: 4.11 µM

Same assay, conditions: Homo sapiens, 48 h, Table 3, MTS, 2 days drug incubation, 50% reduction vs time zero, read-out: Hep3B LC50

Q: For `Cc1nn(C)c2c(NC(=O)c3ccc([N+](=O)[O-])s3)nc(-c3ccc(OC(F)(F)F)cc3)nc12` [Compound 3-3, N-(1,3-dimethyl-5-(4-(trifluoromethoxy)phenyl)-1H-pyrazolo[4,3-d]pyrimidin-7-yl)-5-nitrothiophene-2-carboxamide], which LC50 is on record?
A: 1.92 µM

Same assay, conditions: Homo sapiens, 48 h, Table 4, MTS, 2 days drug incubation, 50% reduction vs time zero, read-out: Hep3B LC50

Q: Which LC50 does the source give for `Cc1csc2c(NC(=O)c3ccc([N+](=O)[O-])s3)nc(-c3ccc(C(C)(C)C)cc3)nc12` [Compound 4-1] here?
A: 1.15 µM

Same assay, conditions: Homo sapiens, 48 h, Table 5, MTS, 2 days drug incubation, 50% reduction vs time zero, read-out: Hep3B LC50

Q: For `O=C(Nc1nc(-c2ccsc2)nc2c1cnn2-c1ccccc1)c1ccc([N+](=O)[O-])s1` [Compound 5-20, 5-nitro-N-(1-phenyl-6-(thiophen-3-yl)-1H-pyrazolo[3,4-d]pyrimidin-4-yl)thiophene-2-carboxamide], which LC50 is on record?
A: 1.11 µM

Q: Which LC50 does the source give for `O=C(Nc1nc(OCCN2CCOCC2)nc2c1cnn2-c1ccccc1)c1ccc([N+](=O)[O-])s1` [Compound 5-12, N-(6-(2-morpholinoethoxy)-1-phenyl-1H-pyrazolo[3,4-d]pyrimidin-4-yl)-5-nitrothiophene-2-carboxamide] here?
A: > 3 µM

Same assay, conditions: Homo sapiens, 48 h, Table 6, MTS, 2 days drug incubation, 50% reduction vs time zero, read-out: Hep3B LC50

Q: How did the LC50 turn out when `CCCOc1ccc(-c2nc(NC(=O)c3ccc([N+](=O)[O-])s3)c3cnn(-c4ccc(F)cc4)c3n2)cc1` [Compound 6-132] was run?
A: 0.43 µM

Q: `CC(C)(C)c1ccc(-n2ncc3c(NC(=O)c4ccc([N+](=O)[O-])s4)nc(-c4ccc(F)cc4)nc32)cc1` [Compound 6-81, N-(1-(4-(tert-butyl)phenyl)-6-(4-fluorophenyl)-1H-pyrazolo[3,4-d]pyrimidin-4-yl)-5-nitrothiophene-2-carboxamide] was tested. Which LC50 did it give?
A: 0.94 µM

Q: Which LC50 does the source give for `O=C(Nc1nc(-c2cccc(F)c2)nc2c1cnn2-c1cccc(Cl)c1)c1ccc([N+](=O)[O-])s1` [Compound 6-34, N-(1-(3-chlorophenyl)-6-(3-fluorophenyl)-1H-pyrazolo[3,4-d]pyrimidin-4-yl)-5-nitrothiophene-2-carboxamide] here?
A: 0.19 µM

Q: `COc1ccc(-n2ncc3c(NC(=O)c4ccc([N+](=O)[O-])s4)nc(-c4ccc(C)nc4)nc32)cc1` [Compound 6-17, N-(1-(4-methoxyphenyl)-6-(6-methylpyridin-3-yl)-1H-pyrazolo[3,4,d]pyrimidin-4-yl)-5-nitrothiophene-2-carboxamide] was tested. Which LC50 did it give?
A: 0.19 µM

Q: How did the LC50 turn out when `CCOCCOc1ccc(-c2nc(NC(=O)c3ccc([N+](=O)[O-])s3)c3cnn(-c4ccc(OC)cc4)c3n2)cn1` [Compound 6-27, N-(6-(6-(2-ethoxyethoxy)pyridin-3-yl)-1-(4-methoxyphenyl)-1H-pyrazolo[3,4-d]pyrimidin-4-yl)-5-nitrothiophene-2-carboxamide] was run?
A: 0.21 µM

Q: With `CCCOC[C@@H]1CCCN1c1nc(NC(=O)c2ccc([N+](=O)[O-])s2)c2cnn(-c3ccc(F)cc3)c2n1` [Compound 6-105, (S)—N-(1-(4-fluorophenyl)-6-(2-(propoxymethyl)pyrrolidin-1-yl)-1H-pyrazolo[3,4-d]pyrimidin-4-yl)-5-nitrothiophene-2-carboxamide] as the compound, how does the LC50 read?
A: 0.42 µM

Q: For `CC(C)(C)c1ccc(-n2ncc3c(NC(=O)c4ccc([N+](=O)[O-])s4)nc(N4CC(F)(F)C4)nc32)cc1` [Compound 6-65, N-(1-(4-(tert-butyl)phenyl)-6-(3,3-difluoroazetidin-1-yl)-1H-pyrazolo[3,4-d]pyrimidin-4-yl)-5-nitrothiophene-2-carboxamide], which LC50 is on record?
A: 0.32 µM

Q: How did the LC50 turn out when `CC1(C)CCC(c2nc(NC(=O)c3ccc([N+](=O)[O-])s3)c3cnn(-c4ccc(F)cc4)c3n2)CC1` [Compound 6-145, N-(6-(4,4-dimethylcyclohexyl)-1-(4-fluorophenyl)-1H-pyrazolo[3,4-d]pyrimidin-4-yl)-5-nitrothiophene-2-carboxamide] was run?
A: 0.89 µM

Q: With `CCOCCOc1ccc(-c2nc(NC(=O)c3ccc([N+](=O)[O-])s3)c3cnn(-c4cccc(F)c4)c3n2)cn1` [Compound 6-95, N-(6-(6-(2-ethoxyethoxy)pyridin-3-yl)-1-(3-fluorophenyl)-1H-pyrazolo[3,4-d]pyrimidin-4-yl)-5-nitrothiophene-2-carboxamide] as the compound, how does the LC50 read?
A: 0.29 µM

Q: Which LC50 does the source give for `CCOCCOCCOc1nc(NC(=O)c2ccc([N+](=O)[O-])s2)c2cnn(-c3ccc(C(C)(C)C)cc3)c2n1` [Compound 6-61] here?
A: 0.54 µM

Q: Which LC50 does the source give for `O=C(Nc1nc(-c2ccsc2)nc2c1cnn2-c1cccc(Cl)c1)c1ccc([N+](=O)[O-])s1` [Compound 6-33, N-(1-(3-chlorophenyl)-6-(thiophen-3-yl)-1H-pyrazolo[3,4-d]pyrimidin-4-yl)-5-nitrothiophene-2-carboxamide] here?
A: 0.29 µM

Q: With `COc1ccc(-n2ncc3c(NC(=O)c4ccc([N+](=O)[O-])s4)nc(-c4ccc(Cl)cc4F)nc32)cc1` [Compound 6-22, N-(6-(4-chloro-2-fluorophenyl)-1-(4-methoxyphenyl)-1H-pyrazolo[3,4-d]pyrimidin-4-yl)-5-nitrothiophene-2-carboxamide] as the compound, how does the LC50 read?
A: 0.38 µM

Q: With `CCOCCOc1ccc(-c2nc(NC(=O)c3ccc([N+](=O)[O-])s3)c3cnn(-c4ccc(Cl)cc4)c3n2)cn1` [Compound 6-52, N-(1-(4-chlorophenyl)-6-(6-(2-ethoxyethoxy)pyridin-3-yl)-1H-pyrazolo[3,4-d]pyrimidin-4-yl)-5-nitrothiophene-2-carboxamide] as the compound, how does the LC50 read?
A: 0.22 µM

Q: `CCOCCOc1ccc(-c2nc(NC(=O)c3ccc([N+](=O)[O-])s3)c3cnn(-c4ccc(C)cc4)c3n2)cn1` [Compound 6-13, N-(6-(6-(2-ethoxyethoxy)pyridin-3-yl)-1-(p-tolyl)-1H-pyrazolo[3,4-d]pyrimidin-4-yl)-5-nitrothiophene-2-carboxamide] was tested. Which LC50 did it give?
A: 0.51 µM

Q: Which LC50 does the source give for `COCCOc1ccc(-c2nc(NC(=O)c3ccc([N+](=O)[O-])s3)c3cnn(-c4ccc(C)cc4)c3n2)cn1` [Compound 6-12, N-(6-(6-(2-methoxyethoxy)pyridin-3-yl)-1-(p-tolyl)-1H-pyrazolo[3,4-d]pyrimidin-4-yl)-5-nitrothiophene-2-carboxamide] here?
A: 0.26 µM

Same assay, conditions: Homo sapiens, 48 h, Table 8, MTS, 2 days drug incubation, 50% reduction vs time zero, read-out: Hep3B LC50

Q: For `O=C(Nc1nc(-c2ccc(F)nc2)nc2c1cnn2C1CCCC1)c1ccc([N+](=O)[O-])s1` [Compound 8-8, N-(1-cyclopentyl-6-(6-fluoropyridin-3-yl)-1H-pyrazolo[3,4-d]pyrimidin-4-yl)-5-nitrothiophene-2-carboxamide], which LC50 is on record?
A: 1.17 µM

Q: How did the LC50 turn out when `CC(C)N1CC[C@H](n2ncc3c(NC(=O)c4ccc([N+](=O)[O-])s4)nc(-c4ccc(F)nc4)nc32)C1` [Compound 8-1, (S)—N-(6-(6-fluoropyridin-3-yl)-1-(1-isopropylpyrrolidin-3-yl)-1H-pyrazolo[3,4-d]pyrimidin-4-yl)-5-nitrothiophene-2-carboxamide] was run?
A: > 3 µM

Same assay, conditions: Homo sapiens, 48 h, Table 9, MTS, 2 days drug incubation, 50% reduction vs time zero, read-out: Hep3B LC50

Q: With `O=C(Nc1nc(-c2ccc(Cl)cc2)nc2c1cnn2C1CCN(C(=O)OCCCC(F)(F)F)CC1)c1ccc([N+](=O)[O-])s1` [Compound 9-9] as the compound, how does the LC50 read?
A: 1.07 µM

Same assay, conditions: Homo sapiens, 48 h, Table 10, MTS, 2 days drug incubation, 50% reduction vs time zero, read-out: Hep3B LC50

Q: Which LC50 does the source give for `CC1CC(C)CC(n2ncc3c(NC(=O)c4ccc([N+](=O)[O-])s4)nc(-c4ccc(F)cc4)nc32)C1` (stereo not shown) [Compound 10-67, N-(1-(3,5-dimethylcyclohexyl)-6-(4-fluorophenyl)-1H-pyrazolo[3,4-d]pyrimidin-4-yl)-5-nitrothiophene-2-carboxamide] here?
A: 0.65 µM

Q: How did the LC50 turn out when `O=C(Nc1nc(-c2cc(Cl)ccc2F)nc2c1cnn2C1CCCCC1)c1ccc([N+](=O)[O-])s1` [Compound 10-47, N-(6-(5-chloro-2-fluorophenyl)-1-cyclohexyl-1H-pyrazolo[3,4-d]pyrimidin-4-yl)-5-nitrothiophene-2-carboxamide] was run?
A: 0.63 µM

Q: For `O=C(Nc1nc(-c2cccc(F)c2)nc2c1cnn2C1CCCCC1)c1ccc([N+](=O)[O-])s1` [Compound 10-12, N-(1-cyclohexyl-6-(3-fluorophenyl)-1H-pyrazolo[3,4-d]pyrimidin-4-yl)-5-nitrothiophene-2-carboxamide], which LC50 is on record?
A: 0.95 µM

Q: How did the LC50 turn out when `O=C(Nc1nc(-c2ccc(Cl)cc2F)nc2c1cnn2C1CCCCC1)c1ccc([N+](=O)[O-])s1` [Compound 10-45, N-(6-(4-chloro-2-fluorophenyl)-1-cyclohexyl-1H-pyrazolo[3,4-d]pyrimidin-4-yl)-5-nitrothiophene-2-carboxamide] was run?
A: 0.87 µM

Q: `CC1CC(C)CC(n2ncc3c(NC(=O)c4ccc([N+](=O)[O-])s4)nc(-c4ccc(Cl)cc4)nc32)C1` (stereo not shown) [Compound 10-69, N-(6-(4-chlorophenyl)-1-(3,5-dimethylcyclohexyl)-1H-pyrazolo[3,4-d]pyrimidin-4-yl)-5-nitrothiophene-2-carboxamide] was tested. Which LC50 did it give?
A: 0.86 µM

Q: Which LC50 does the source give for `O=C(Nc1nc(-c2cccs2)nc2c1cnn2C1CCCCC1)c1ccc([N+](=O)[O-])s1` [Compound 10-5, N-(1-cyclohexyl-6-(thiophen-2-yl)-1H-pyrazolo[3,4-d]pyrimidin-4-yl)-5-nitrothiophene-2-carboxamide] here?
A: 0.75 µM

Q: For `O=C(Nc1nc(-c2ccc(C(F)(F)F)cc2)nc2c1cnn2C1CCCCC1)c1ccc([N+](=O)[O-])s1` [Compound 10-24, N-(1-cyclohexyl-6-(4-(trifluoromethyl)phenyl)-1H-pyrazolo[3,4-d]pyrimidin-4-yl)-5-nitrothiophene-2-carboxamide], which LC50 is on record?
A: 0.64 µM
